A short description of data set [1]: PK and PD interaction studies of oral tazarotene with oral contraceptives. Type of data set: in vivo, human. Particulars: tazarotene 1.1 mg or 6 mg daily with NE/EE or NGM/EE. As to the method: It is the objective of this study to determine if there are pharmacokinetic (PK) and pharmacodynamic (PD) interactions between tazarotene and commonly prescribed oral contraceptives (OCs) when coadministered together.
Three separate clinical studies are conducted to evaluate the PK and PD interactions of oral tazarotene and OCs in healthy volunteers. Two studies evaluate daily doses of norethindrone (NE)/ethinyl estradiol (EE) with daily doses of tazarotene 1.1 mg (N=27) and 6 mg (N=29). The third study assesses the daily doses of norgestimate (NGM)/EE with daily doses of tazarotene 6 mg (N=26). OCs are administered for three consecutive menstrual cycles. Daily doses of tazarotene are started during the 2nd cycle and continued through the end of the studies. PK parameters for EE, NE, and NGM (AUC0-24 and Cmax) are determined before tazarotene dosing and after tazarotene dosing on day 6 of the 2nd and 3rd cycles. Serum concentrations of luteinizing hormone (LH) and follicle-stimulating hormone (FSH)-markers of contraceptive efficacy are also evaluated before tazarotene dosing and after tazarotene dosing on days 2, 4, and 6 of the 2nd and 3rd cycles. Serum progesterone levels are assessed on days 18 and 20 of the 2nd and 3rd cycles. […]

For data set [2] the following is noted: topical administration of tazarotene; 'often well less than'; cited from earlier work.
Data set [3] can be described thus: Food effect on pharmacokinetics of tazarotenic acid after oral tazarotene (high-fat meal vs fast). The note with it: 6.3 mg oral tazarotene, healthy subjects; for average ratio of Cmax values (test/reference): high-fat meal vs 8-10 hour fast. Type of data set: in vivo, human. As to the method:
For the purposes of this application, the bioavailability of a drug may be based on the human pharmokinetic parameters of maximum blood concentration (Cmax) and Area under the blood concentration-time curve (AUC).
The LC-MS/MS test for simultaneous detection of tazarotene and tazarotenic acid may be run as follows. One ml of plasma (EDTA-treated) is diluted with 1.0 ml of water. Diluted plasma is extracted using solid phase extraction (SPE) on a C18 cartridge. The eluate is evaporated, reconstituted in a water/methanol-based mobile phase, and injected onto a 4.6×50 mm, 3 μm pore size C-8 reverse phase high pressure liquid chromatography (HPLC) column (Agilent, Wilmington, Del.). Compounds are gradient-eluted at 1.2 mL/min and detected using an API 3000 triple quadrupole mass spectrometer with an Atmospheric Pressure Chemical Ionization (APCI) source (PE-Sciex, Concord, Ontario, Canada). Molecular reaction monitoring enhances the sensitivity and selectivity of this assay by collisionally dissociating the protonated molecules for the analyte and an internal standard thereby forming the product ions. The specific precursor-product ion pair monitored are m/z 352→324 for tazarotene, m/z 359→331 for the tazarotene internal standard, m/z 324→294 for tazarotenic acid, and m/z 331+298 for the tazarotenic acid internal standard. The lower limit of quantitation at assay range tested is 0.1 ng/mL, with a coefficient of variation and deviation from nominal concentration of <15%.

The next data set has as its system sebaceous glands. Particulars: severe acne; published reports (Geiger); cited from earlier work.
For data set [4] the following is noted: oral, cited from earlier work; for impact of food on bioavailability: literature.
For data set [5] the following is noted: in vivo; cited from earlier work.
A further data set relates to patients. Put plainly: Two placebo-controlled 24-week safety studies of oral tazarotene plus dose-response evaluations. It counts as in vivo, human. The note with it: 4.5 mg orally once daily; two safety trials; placebo 17%. As to the method:
Two multicenter, double-blind, randomized, placebo-controlled 24-week studies of identical design are conducted to evaluate the safety of oral tazarotene. In addition, 16- to 24-week dose-response evaluations are performed.
In the two safety trials, the incidence of adverse side effects with a 4.5 mg dose administered orally once daily is compared to the incidence of the same side effects with a placebo. […] The majority of these were mild in severity and typical of adverse effects associated with oral retinoids.

Data set [6] relates to patients having nodulocystic acne. The data set can be described thus: Two placebo-controlled dose-ranging safety studies of oral tazarotene in nodulocystic acne. Type of data set: in vivo, human. The note with it: for cheilitis: treatment period; for Emotional lability: all cases mild. As to the method: Two placebo-controlled dose-ranging studies are conducted to evaluate the safety of oral tazarotene in patients having nodulocystic acne. In the first study, patients receive orally administered tazarotene at daily doses of 0.4 mg to 2.8 mg in 96 (71+25) patients (12 weeks treatment plus 12 weeks post-treatment). In the second study, daily doses of 0.75 mg to 6 mg tazarotene are administered to 181 patients (24 weeks treatment plus 12 weeks post-treatment).

In another data set the test system is sebum secretion. The data set can be described thus: Sebum output by Sebutape patches in the nodulocystic acne study. Type of data set: in vivo, human. The note with it: oral 0.75 to 6 mg once daily; up to 86 patients. The method, then:
(§1) Sebum output is assessed every 4 weeks at selected centers using the Sebutape® patches, sold by Cuderm Corporation. Urinalysis, chemistry, and hematology values are monitored. Bone formation and resorption assessments (serum bone alkaline phosphatase and serum amino terminal telopeptides, respectively) at selected centers are monitored.
Sebum secretion output is assessed in a maximum of 86 patients (with successively fewer patients at each timepoint—e.g., 60 patients at week 24, 46 patients at week 36). Importantly, there is no consistent statistically significant differences in sebum production across treatment groups using the Sebutape® method of assessment.

The test system of another data set is severe nodulocystic acne. The data set can be described thus: Double-blind, randomized, placebo-controlled study of oral tazarotene in severe nodulocystic acne. Type of data set: in vivo, human.
From the text: A multicenter, double-blind, randomized, placebo-controlled parallel-group study is undertaken to determine the efficacy of orally administered tazarotene in treating severe nodulocystic acne.
In addition, washout periods for other medications for this study are: 1 week for vitamin A supplements >5000 IU; 2 weeks for topical anti-acne medications (e.g., retinoids, azelaic acid, benzoyl peroxide); 2 weeks for topical or systemic antibiotic therapy that may alter the course of acne; and 6 months for systemic retinoids.
Patients are randomized to receive placebo or oral tazarotene (0.75, 1.5, 3, or 6 mg), in a 1:1:1:1:1 ratio once daily for 24 weeks. After this, the patients are followed without treatment for an additional 12 weeks. Patients discontinuing from the treatment period due to adverse effects or lack of efficacy are eligible for entry into the post-treatment phase.
In the study, overall acne severity is rated as: none (no inflammatory acne lesions); mild (few to several papules or pustules, no nodulocystic lesions); moderate (several to many papules or pustules, few to several nodulocystic lesions); and severe (numerous or extensive papules or pustules, many, for example, at least about 5 or at least about 10, nodulocystic lesions). […]
as §1
Bone mineral density of spine and proximal femur at selected centers is monitored. Ligament calcification or osteophyte formation (lateral X-ray of the cervical and thoracic spine, and ankle calcaneous) is monitored. Epiphyseal growth plate closure (internal oblique X-ray of the ankle in patients less than or equal to 21 years old) is monitored.

The next data set concerns severe psoriasis. Put plainly: Patient with severe psoriasis on Ortho-Novum treated with tazarotene. It counts as in vivo, human. Particulars: 6 mg per day; after 30 days. The text has this: The patient presents symptoms of severe psoriasis. The symptoms include lesions approximately 4 to 10 centimeters across appearing as raised patches of wine red skin many of which are covered in silvery white scales. The lesions are mostly dry and rough, and quite often noticeably warm to the touch. The lesions are present on the elbows, knees, scalp, and groin area. The patient experiences intense burning and itching associated with the lesions.
The patient is currently taking Ortho-Novum® for contraception.
Tazarotene at a dose of 6 mg per day is prescribed.

Data set [7] relates to patients treated for acne. Put plainly: Adverse event monitoring in studies of orally administered tazarotene for acne (Table 2). Type of data set: in vivo, human. Particulars: combined data from Studies 1 and 2 (N = 223). As to the method: Studies are conducted on orally administered tazarotene for the treatment of acne. Adverse events (side effects) are monitored.

With `CC1(C)CCSc2ccc(C#Cc3ccc(C(=O)O)cn3)cc21` [tazarotenic acid], the “90% confidence intervals of AUC0-24 and Cmax for EE, NE, and NGM” value in [1] is reported as “within the 80-125% boundary”. The maximum blood concentration entry in [2] is “less than 30 ng/ml”. In data set [3] (single and multiple dose), the “effect of high-fat meal on bioavailability or pharmacokinetics” value was “does not substantially affect”. Further, the figures for the “average ratio of Cmax values (test/reference)” value in data set [3] (Day 0) and in data set [3] (Day 9) were 1.00 and 0.829, respectively.

On to `CC1=C(/C=C/C(C)=C/C=C/C(C)=C\C(=O)O)C(C)(C)CCC1` [Isotretinoin, isotretinoin], for which the “decrease in sebum secretion rate” value in the data set with sebaceous glands is “about 90%”. In data set [4], the “total dose needed to reach the same peak blood concentration in the fasted state vs following a high fat meal” value is “more than doubled” and the “impact of food on bioavailability” value was “bioavailability is increased in the presence of food”. Further, the “effect on coadministered contraceptive tablets” value in data set [5] is “decreases blood concentrations of both ethinyl estradiol and norethindrone”.

Consider `COc1cc(C)c(/C=C/C(C)=C/C=C/C(C)=C/C(=O)O)c(C)c1C` [Acitretin, acitretin], for which the “impact of food on bioavailability” value in data set [4] is “bioavailability is increased in the presence of food”.

With `C=C(c1ccc(C(=O)O)cc1)c1cc2c(cc1C)C(C)(C)CCC2(C)C` [bexarotene], the “impact of food on bioavailability” value in data set [4] was “bioavailability is increased in the presence of food”.

On to `CCOC(=O)c1ccc(C#Cc2ccc3c(c2)C(C)(C)CCS3)nc1` [tazarotene], for which the incidence of cheilitis in the data set with patients amounted to 66%. Moreover, the joint disorder in [6] (2.8 mg, n=11, placebo 0%) was determined as 27%; in data set [6] (3 mg, n=37), 14%; in [6] (6 mg, n=36), 19%. Moreover, the arthralgia is given as 9% in [6] (2.8 mg, n=11, placebo 6%); 8% in data set [6] (3 mg, n=37); 28% in data set [6] (6 mg, n=36). Moreover, the myalgia in [6] (2.8 mg, n=11, placebo 9%) stood at 0%; in data set [6] (3 mg, n=37), 16%; in data set [6] (6 mg, n=36), 25%. Moreover, the asthenia in [6] (2.8 mg, n=11, placebo 13%) was determined as 0%; in [6] (3 mg, n=37) it was 19%; in data set [6] (6 mg, n=36), 19%. The dry skin in data set [6] (2.8 mg, n=11, placebo 19%) turned out to be 18%; in [6] (3 mg, n=37), 35%; in data set [6] (6 mg, n=36), 50%. In addition, the headache in [6] (2.8 mg, n=11, placebo 28%) is reported as 9%; in data set [6] (3 mg, n=37) it was 19%; in data set [6] (6 mg, n=36), 36%. In addition, the cheilitis in [6] (2.8 mg, n=11, placebo 31%) amounted to 64%; in data set [6] (3 mg, n=37), 78%; in data set [6] (6 mg, n=36), 94%. The Emotional lability in data set [6] (3 mg group, placebo 2 (4%)) is given as 1 (3%) patient (%); in data set [6] (6 mg group) it was 5 (14%) patient (%). The Depression result in [6] (6 mg group) was “none”. Further, in data set [6] (0.4 to 6 mg daily), the “changes in urinalysis, chemistry, or hematology measures (incl. liver function tests, triglycerides, total cholesterol, HDL cholesterol)” value is “no consistent dose-related clinically significant changes”. The “patients withdrawing from either study due to adverse events” value in [6] (7/277, all groups of both studies incl. placebo) is given as 2.5%. Further, the “effect on sebum secretion (Sebutape method)” value with sebum secretion was “does not substantially reduce sebum secretion relative to placebo”. Besides, in the data set with severe nodulocystic acne (3 mg and 6 mg, week 24 and throughout post-treatment phase, p≦0.05), the “incidence of treatment success (≧50% global improvement) vs placebo” value is “significantly higher”. Moreover, in the data set with severe nodulocystic acne (6 mg, week 16 until end of post-treatment phase, p≦0.01), the “reduction of overall acne severity” value is listed as “significantly more than placebo”. In the data set on severe nodulocystic acne (oral 0.75 to 6 mg once daily), the “abnormalities in liver function test results or elevated triglycerides, total cholesterol, or HDL cholesterol” value is on record as “not generally associated”. Further, the “psoriasis symptoms and lesions” value in the data set with severe psoriasis is “symptoms of itching and burning are relieved”. Further, the Conjunctivitis in [7] is given as 0 (0.0) NUMBER OF (%) OF PATIENTS. The Irritation of eyes in data set [7] is on record as 0 (0.0) NUMBER OF (%) OF PATIENTS.

Source of the values: patent US20050026957A1, “Methods of treating nodulocystic acne” (Allergan, Inc., priority 2003, published 2005).
